Holding throughout (type): cell-based, human
Experiment [1] relates to CD8+ T-cells from HLA A2+ healthy donors. In words: Priming of CD8+ T-cells from HLA A2+ healthy donors with WT and APL peptides, tetramer staining. The conditions noted are these: HLA A2+ healthy donors (n=3), compared to priming with WT peptides. As to the method: The peptides are sequence […] to the wild-type peptide and termed altered peptide ligands. […] (FIG. 9B) To test the APLs for super-agonist properties each of the WT and APL peptides were used to prime CD8+ T-cells from HLA A2+ healthy donors. The magnitude of the response to each of the peptides was assessed by staining the T-cells with tetramers for HLA A2-[…]
To generate T-cell peptide lines, CD8 T-cells were purified from the PBMCs of HLA A2+ donors using CD8 microbeads according to the manufacturer's instructions (Miltenyi Biotech, Bergisch Gladbach, Germany). Purified CD8 cells (3×10^6) were co-incubated with autologous CD8neg cells (6-8×10^6) in 24 well plates in 2 mL of T-cell media, but with no IL-15. 25 μM of each peptide was used. The cultures had 50% of the media changed thrice weekly. Tetramer staining was performed as above, using 500,000 cells per tube. […] 50,000 T-cells and 15,000 cancer cells were used per well. Incubation was performed for 48 h, and the assay developed according to the manufacturer's instructions (Mabtech, Nacka Strand, Sweden).
(§1) CPL assay of CR24 was performed as described above. Candidate peptide agonists were designed using the CR24 CPL and an online algorithm (http://wsbc.warwick.ac.uk/wsbcToolsWebpage/user_cases.php). Priming of CD8 T-cells from healthy donors, tetramer staining, and chromium release cytotoxicity assays were performed as described above.

Experiment [2] deals with T-cell clone CR24. In words: HLA A2 tetramer staining of CR24.
Experiment [3] concerns T-cell clone CR24. In words: Activation assay of clone CR24 with exogenous peptide (peptide titration, MIP-1β ELISA). For orientation: In an ELISA, binding on a coated surface is turned into a signal by an enzyme label.
Experiment [4] has as its system autologous melanoma cells. The experiment can be described thus: Chromium release cytotoxicity assay of peptide-primed T-cell lines with autologous melanoma. The conditions noted are these: compared to WT Melan A peptide primed T-cells. As to the method: as §1
Experiment [5] relates to CD8 T-cells from RCC, CLL and AML patients. The experiment can be described thus: Priming of CD8 T-cells from RCC, CLL and AML patients for 28 days, TAPI-0 assay or tetramer staining. The text has this:
(§2) (FIG. 14A) CD8 T-cells from a renal cell carcinoma (RCC) and chronic lymphocytic leukaemia (CLL) patient were left unprimed or primed with […] peptide for 28 days.

In experiment [6] the test system is autologous cancer cells (RCC, CLL). In words: Killing assay of peptide-primed CD8 T-cells with autologous cancer cells.
Description: as §2

For the sequence “ITSAIGILPV (listed as Homo sapiens) [APL 2, altered peptide ligand, candidate super-agonist designed from CR24 CPL data]”, the “priming of Melan A, BST2 and IMP2 tetramer-positive T-cells” value in experiment [1] is given as “exhibiting effect across each donor”.

Take “LLLGIGILVL (listed as Homo sapiens) [wild-type peptide from BST2 (residues 22-31)]”: the “staining of CR24 with HLA A2 tetramer containing the peptide” value in the experiment on T-cell clone CR24 [2] is listed as “stained”. Moreover, the “recognition by CR24 as exogenous peptide” value with T-cell clone CR24 [3] was “recognised”. Also, the “CR24 response to individual peptide” value was “responded” in the experiment on T-cell clone CR24 [3] (peptide at 10^-6 M) and “responses dropped” in the experiment on T-cell clone CR24 [3] (peptide at 10^-8 M).

Turning to “MTSAIGILPV (listed as Homo sapiens) [APL 5, altered peptide ligand, super-agonist peptide for multi-pronged T-cells]”, in experiment [4], the “lysis of autologous melanoma cells by peptide-primed T-cells” value was “superior lysis”. Moreover, the “proportion of IMP-2 specific T-cells (IMP-2 tetramer)” value in experiment [5] (AML patient and two CLL patients, primed 28 days, compared to unprimed) was “induced a greater proportion”. The “MTSAIGILPV specific T-cells after priming” value in experiment [5] (RCC patient (TAPI-0 assay), CLL patient (tetramer), primed 28 days) is reported as “presence”. Besides, the “priming of T-cells in RCC, CLL and AML patients” value in experiment [5] (renal cell carcinoma, chronic lymphocytic leukaemia and acute myeloid leukaemia patients) is reported as “superior at priming”. For the same sequence, the “killing of CLL cells by primed T-cells” value in experiment [6] (CLL patient 3, compared to IMP-2 primed CD8s) is given as “killed more CLL cells”. Also, in experiment [6] (RCC and CLL patient, compared to unprimed T-cells), the “killing of autologous cancer cells by primed CD8s” value is recorded as “killed more autologous cancer cells”. Moreover, the figures for the “priming of Melan A, BST2 and IMP2 tetramer-positive T-cells” value in experiment [1] and in experiment [1] (listed as MTSAIGVLVP) were “most effective super-agonist” and “most effective of the candidate super-agonists”, respectively.

In the case of “NLSALGIFST (listed as Homo sapiens) [wild-type peptide from IMP2 (residues 367-376)]”, the “staining of CR24 with HLA A2 tetramer containing the peptide” value in the experiment on T-cell clone CR24 [2] was “stained”. Moreover, the “recognition by CR24 as exogenous peptide” value in the experiment on T-cell clone CR24 [3] is listed as “recognised”. Besides, the “CR24 response to individual peptide” value with T-cell clone CR24 [3] (peptide at 10^-6 M) was “responded”; in the experiment with T-cell clone CR24 [3] (peptide at 10^-8 M), “responses dropped”.

Source of the values: US20220233662A1, “NOVEL PEPTIDE” (University College Cardiff Consultants Ltd., priority 2020, published 2022).
